Measured values reported in patent EP0415924B1, “REGULATION OF CELL PROLIFERATION AND DIFFERENTIATION USING PEPTIDES” (HOLICK, Michael F, priority 1987, dated 1996).

Legend:
[1] = test system: canine adenylate cyclase system; conditions: cited from earlier work
[2] = test system: cultured human keratinocytes; experiment: Keratinocyte culture: counts of total cells and basal cells after one week of dosing; assay type: cell-based; conditions: seven days, dose-dependent, Figures 2-5
Method: Keratinocytes were grown in culture as follows. NIH 3T3 cells were plated at 0.5 x 10⁵ cells per 35-mm tissue-culture dish, and two days later were lethally irradiated with a cobalt-60 source (5000 rads). Keratinocytes were obtained from neonatal foreskin after overnight trypsinization at 4°C and treatment with 0.02% EDTA. Keratinocytes were plated in 2 ml of serum-free medium per dish on the lethally irradiated 3T3 cells. Each experiment was performed on primary or secondary keratinocyte cultures obtained from different skin samples. The serum-free medium consisted of Dulbecco's Modified Eagle's Medium (DMEM) with high (1.8 mM) concentration of calcium (M.A. Bioproducts, Walkersville, MD) containing 7 growth factors: epidermal growth factor (25 ng/ml); hydrocortisone (203 ng/ml); insulin (5 µg/ml); prostaglandin E₁ (50 ng/ml); transferrin (5 µg/ml; prostaglandin E₁ (50 ng/ml); cholera toxin (0.1 µg/ml); (Sigma Chemical Co., St. Louis, MO); and selenous acid (2 ng/ml) (Collaborative Research, Lexington, MA). At one week in culture, hydrocortisone and cholera toxin were removed from the medium, and the dishes were washed with 0.02% EDTA to remove any remaining 3T3 cells. […]
After seven days the cultures were evaluated for their total cell content, number of basal cells, and cornified envelopes as described above. […]

[3] = test system: cultured human keratinocytes; experiment: Keratinocyte differentiation: count of cornified envelopes after one week of dosing; assay type: cell-based; conditions: dose-dependent, relative to control cultures, Figures 6 and 7
Method: Keratinocytes were grown in culture as follows. NIH 3T3 cells were plated at 0.5 x 10⁵ cells per 35-mm tissue-culture dish, and two days later were lethally irradiated with a cobalt-60 source (5000 rads). Keratinocytes were obtained from neonatal foreskin after overnight trypsinization at 4°C and treatment with 0.02% EDTA. Keratinocytes were plated in 2 ml of serum-free medium per dish on the lethally irradiated 3T3 cells. Each experiment was performed on primary or secondary keratinocyte cultures obtained from different skin samples. The serum-free medium consisted of Dulbecco's Modified Eagle's Medium (DMEM) with high (1.8 mM) concentration of calcium (M.A. Bioproducts, Walkersville, MD) containing 7 growth factors: epidermal growth factor (25 ng/ml); hydrocortisone (203 ng/ml); insulin (5 µg/ml); prostaglandin E₁ (50 ng/ml); transferrin (5 µg/ml; prostaglandin E₁ (50 ng/ml); cholera toxin (0.1 µg/ml); (Sigma Chemical Co., St. Louis, MO); and selenous acid (2 ng/ml) (Collaborative Research, Lexington, MA). At one week in culture, hydrocortisone and cholera toxin were removed from the medium, and the dishes were washed with 0.02% EDTA to remove any remaining 3T3 cells.
In addition, 1,25-(OH)₂D₃ was tested, alone and in combination with PTH (7-34), and PTH (1-34) and PTH (7-34) were tested together. […]

Molecule	activity relative to bovine PTH (1-34) ([1]; more active than bovine PTH (1-34))	activity relative to human PTH (1-34) ([1]; more active than human PTH (1-34))	total number of cells and the number of basal cells in the cultures [2]	total number of cornified envelopes (percent of control) [3]
Rat PTH (1-34): rat PTH 1-34 fragment, 5 amino acid sequence difference from the 1-34 region of human and bovine PTH	2-4 fold	8-10 fold	–	–
C=C1/C(=C\C=C2/CCC[C@]3(C)[C@@H]([C@H](C)CCCC(C)(C)O)CC[C@@H]23)C[C@@H](O)C[C@@H]1O [1,25(OH)₂D₃, 1,25-dihydroxyvitamin D₃]	–	–	in a dose-dependent manner decreased	increased, in a dose-dependent manner
